Measurements published in patent US12162863B2, “Modulators of stimulator of interferon genes (STING)” (RYVU THERAPEUTICS S.A., priority 2018, dated 2024).

Assays:
[1] = test system: interferon regulatory factor (IRF) pathway in THP-1 dual cells; assay: THP-1 Dual Reporter Assay, IRF pathway (luciferase reporter); assay type: cell-based; settings: Homo sapiens, THP1-Dual, 18 h of stimulation, luminescence
Outline: (§1)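 THP-1 dual cells stimulated 18 h with STING agonist; medium then sampled. IRF pathway: luciferase (ISG54 promoter/ISRE) read as luminescence immediately after reagent addition. NF-κB pathway: SEAP (IFN-β minimal promoter/NF-κB elements) developed 2 h at 37 °C, absorbance at 630 nm.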

human STING = human STING (Homo sapiens, UniProt Q86WV6); assay: Fluorescence Thermal Shift assay; assay type: binding; settings: 50 μM compound; STING 0.1 mg/ml; 20 minutes preincubation; read-out: [hSTING] FTS, ΔTm [° C.] for 50 μM
Outline: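 Human STING at a final 0.1 mg/ml was preincubated with compound for 20 min in 50 mM Hepes, 150 mM NaCl, pH 7.5, then SyproOrange dye was added. Thermal unfolding ran from 25 to 99° C at 0.033° C/s, continuous ramp. Values are reported as ΔTm (° C).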

[2] = test system: NF-κB pathway in THP-1 dual cells; assay: THP-1 Dual Reporter Assay, NF-κB pathway (SEAP reporter); assay type: cell-based; settings: Homo sapiens, THP1-Dual, 18 h of stimulation, absorbance at 630 nm, read-out: THP1 Dual EC50 (μM) NFkB
Outline: as §1

human STING, sequence (Q86WV6 whole entry H232R): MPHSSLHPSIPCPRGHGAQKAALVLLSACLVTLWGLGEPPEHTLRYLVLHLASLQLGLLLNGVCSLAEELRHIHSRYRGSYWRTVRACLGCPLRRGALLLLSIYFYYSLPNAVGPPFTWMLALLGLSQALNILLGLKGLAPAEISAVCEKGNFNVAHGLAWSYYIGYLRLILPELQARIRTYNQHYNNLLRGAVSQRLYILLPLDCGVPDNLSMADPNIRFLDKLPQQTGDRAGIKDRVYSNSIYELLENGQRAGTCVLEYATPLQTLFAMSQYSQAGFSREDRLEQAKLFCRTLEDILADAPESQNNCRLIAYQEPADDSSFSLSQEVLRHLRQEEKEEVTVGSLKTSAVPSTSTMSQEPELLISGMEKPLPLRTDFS

EC50 [1]: ≤ 10 µM | ΔTm at 50 µM (human STING): > 2.5 °C | EC50 [2]: ≤ 10 µM
SMILES: O=c1c(CN(CCCn2ccnc2)Cc2ccncc2)coc2cc(Br)c(F)cc12 [Example 37, 7-bromo-6-fluoro-3-({[3-(1H-imidazol-1-yl)propyl][(pyridin-4-yl)methyl]amino}methyl)-4H-chromen-4-one]
